Source: PubChem BioAssay AID256 (DTP/NCI, 2004)
Inconclusive results and toxic doses are left out. Rule for the calls: active = survival T/C of 150% or more; inactive = T/C below 125% in these data.

System: CD2F1 mice, L1210 leukemia ip, survival T/C
Assay: NCI In Vivo Anticancer Drug Screen. Data for tumor model L1210 Leukemia (intraperitoneal) in CD2F1 (CDF1) mice
Conditions: endpoint: mean survival time, schedule: Q04DX003 (ip), vehicle: Klucel (hydroxypropylcellulose) (HPC), higher = longer survival
How it was run: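 Tumor-bearing mice (transplanted tumor) were split into treated and vehicle control groups, and the measured endpoint of each treated group was divided by that of its vehicle controls.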

Measured: T/C

c1cc[c]([Ge]([O][Ge]([c]2ccccc2)([c]2ccccc2)[c]2ccccc2)([c]2ccccc2)[c]2ccccc2)cc1
inactive: dose: 50.0 mg/kg/injection 96 % of control | dose: 100.0 mg/kg/injection 96 % of control | dose: 200.0 mg/kg/injection 96 % of control
